In one assay the target is T1, B1R receptor of the rat (Rattus norvegicus, UniProt P97583).
T1 construct: host or cells: CHO K1 cells (Chinese hamster ovary), stably transfected
T1 sequence (P97583 1-337): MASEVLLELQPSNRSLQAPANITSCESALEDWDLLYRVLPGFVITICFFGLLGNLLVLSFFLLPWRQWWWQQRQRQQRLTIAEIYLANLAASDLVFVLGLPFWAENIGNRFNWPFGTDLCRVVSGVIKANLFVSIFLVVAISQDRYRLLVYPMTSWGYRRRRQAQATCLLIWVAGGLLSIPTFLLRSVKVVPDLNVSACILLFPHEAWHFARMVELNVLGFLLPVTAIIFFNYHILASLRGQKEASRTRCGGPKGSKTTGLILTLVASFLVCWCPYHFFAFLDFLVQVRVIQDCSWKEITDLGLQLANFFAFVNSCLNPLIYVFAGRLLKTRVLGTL
Put plainly: Functional study on the bradykinin receptor 1 (B1R), FLIPR Ca2+ assay, rB1R cells. Type of assay: cell-based. As to conditions: agonist Des-Arg9-bradykinin 100 nM, % inhibition compared with the maximum achievable inhibition; for inhibition at 10 µM: CHO-K1, test substance 10 μM, read-out: B1R Antagonism, rat [10 μM] % Inhibition. In outline: (§1)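 CHO K1 cells stably expressing human or rat B1R, Fluo-4-loaded; test compound 10 μM added first (activation % vs agonist), then after 10 min 0.5 nM Lys-Des-Arg9-bradykinin (human) or 100 nM Des-Arg9-bradykinin (rat). Ca2+ peak fluorescence by FLIPR; % inhibition relative to maximum achievable inhibition.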

The target of another assay is T2, human B1R receptor (Homo sapiens, UniProt P46663).
T2 construct: host or cells: CHO K1 cells (Chinese hamster ovary), stably transfected
T2 sequence (P46663 1-353): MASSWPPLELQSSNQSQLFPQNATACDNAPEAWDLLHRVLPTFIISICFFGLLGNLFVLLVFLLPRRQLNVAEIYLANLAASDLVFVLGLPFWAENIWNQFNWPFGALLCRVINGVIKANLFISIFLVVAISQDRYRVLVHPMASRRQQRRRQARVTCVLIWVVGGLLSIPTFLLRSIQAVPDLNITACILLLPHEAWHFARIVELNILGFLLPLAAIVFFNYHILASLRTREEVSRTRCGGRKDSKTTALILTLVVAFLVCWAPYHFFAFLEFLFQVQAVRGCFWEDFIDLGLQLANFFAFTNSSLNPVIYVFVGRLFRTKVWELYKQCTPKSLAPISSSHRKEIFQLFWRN
Put plainly: Functional study on the bradykinin receptor 1 (B1R), FLIPR Ca2+ assay, hB1R cells. Type of assay: cell-based. As to conditions: agonist Lys-Des-Arg9-bradykinin 0.5 nM, % inhibition compared with the maximum achievable inhibition; for inhibition at 10 µM: CHO-K1, test substance 10 μM, read-out: B1R Antagonism, human [10 μM] % Inhibition. In outline:
as §1

One may read the inhibition as the relative decrease from the control value, in per cent. On to `O=C(COCC1CCCN1S(=O)(=O)c1ccc(Cl)c(Cl)c1)N1CCC(CCN2CCCCC2)CC1` (centres unmarked) [Example 36, 2-((1-(3,4-dichlorophenylsulfonyl)pyrrolidin-2-yl)methoxy)-1-(4-(2-(piperidin-1-yl)-ethyl)piperidin-1-yl)ethanone], for which the inhibition at 10 µM at B1R receptor of the rat was 45.7%; on human B1R receptor, 79.4%.
With `COc1cc(C)c(S(=O)(=O)N2CCCCC2COCC(=O)N2CCN(CCC#N)CC2)c(C)c1` (centres unmarked) [Example 410, 3-(4-(2-((1-(4-methoxy-2,6-dimethylphenylsulfonyl)piperidin-2-yl)methoxy)acetyl)piperazin-1-yl)propanenitrile], the inhibition at 10 µM came to 103% on B1R receptor of the rat and 102% on human B1R receptor.
For the molecule `COc1cc(C)c(S(=O)(=O)N2CCCCC2COCC(=O)NCc2ccc(N3CCN(C)CC3)cc2)c(C)c1` (centres unmarked) [Example 3, 2-[1-(4-methoxy-2,6-dimethyl-phenylsulfonyl)-piperidin-2-ylmethoxy]-N-[4-(4-methyl-piperazin-1-yl)-benzyl]-acetamide], the “B1R Antagonism, rat [10 μM] % Inhibition” value at B1R receptor of the rat (test substance 10 μM, rB1R CHO K1 cells) was 108.97%. Also, the “B1R Antagonism, human [10 μM] % Inhibition” value at human B1R receptor (test substance 10 μM, hB1R CHO K1 cells) is listed as 103.84%.
Turning to `O=C(COCC1CCCCN1S(=O)(=O)c1c(Cl)cccc1Cl)NCc1ccc(CN2CCCC2)cc1` (centres unmarked) [Example 313, 2-((1-(2,6-dichlorophenylsulfonyl)piperidin-2-yl)methoxy)-N-(4-(pyrrolidin-1-ylmethyl)benzyl)acetamide], the inhibition at 10 µM at B1R receptor of the rat and on human B1R receptor was 103% throughout.
Take `COc1cc(C)c(S(=O)(=O)N2CCCC2COCC(=O)NCc2ccc(CN3CCN(C)CC3)cc2)c(C)c1` (centres unmarked) [Example 40, 2-[1-(4-methoxy-2,6-dimethyl-phenylsulfonyl)-pyrrolidin-2-ylmethoxy]-N-[4-(4-methyl-piperazin-1-ylmethyl)-benzyl]-acetamide]: the inhibition at 10 µM on B1R receptor of the rat was found to be 88.7%; on human B1R receptor it was 72.7%.
With `COc1cc(C)c(S(=O)(=O)N2CCCCC2COCC(=O)N2CCN(Cc3ccc(Cl)c(Cl)c3)CC2)c(C)c1` (centres unmarked) [Example 381, 1-(4-(3,4-dichlorobenzyl)piperazin-1-yl)-2-((1-(4-methoxy-2,6-dimethylphenylsulfonyl)piperidin-2-yl)methoxy)ethanone], the inhibition at 10 µM on B1R receptor of the rat was 100%; at human B1R receptor it was 77.9%.
Regarding `COc1cc(C)c(S(=O)(=O)N2CCCC2COCC(=O)N2CCN(c3ccccc3)CC2)c(C)c1` (centres unmarked) [Example 461, 2-((1-(4-methoxy-2,6-dimethylphenylsulfonyl)pyrrolidin-2-yl)methoxy)-1-(4-phenylpiperazin-1-yl)ethanone], the results for the inhibition at 10 µM at B1R receptor of the rat and on human B1R receptor were 99.1% and 101%, respectively.
Take `COc1cc(C)c(S(=O)(=O)N2CCCCC2COCC(=O)Nc2cccnc2N2CCOCC2)c(C)c1` (centres unmarked) [Example 395, 2-((1-(4-methoxy-2,6-dimethylphenylsulfonyl)piperidin-2-yl)methoxy)-N-(2-morpholinopyridin-3-yl)acetamide]: the inhibition at 10 µM on B1R receptor of the rat turned out to be 100%; on human B1R receptor it was 12.6%.
Consider `COc1cc(C)c(S(=O)(=O)N2CCCCC2COCC(=O)N(C)CCc2ccncc2)c(C)c1` (centres unmarked) [Example 239, 2-((1-(4-methoxy-2,6-dimethylphenylsulfonyl)piperidin-2-yl)methoxy)-N-methyl-N-(2-(pyridin-4-yl)ethyl)acetamide], for which the inhibition at 10 µM on B1R receptor of the rat is 99.7%; at human B1R receptor, 94.7%.
For `CN(C)CCCN1CCN(C(=O)COCC2CCCCN2S(=O)(=O)c2cccc(C(F)(F)F)c2)CC1` (centres unmarked) [Example 58, 1-[4-(3-dimethylamino-propyl)-piperazin-1-yl]-2-[1-(3-trifluoromethyl-phenylsulfonyl)-piperidin-2-ylmethoxy]-ethanone], in that order: 10.2% and 62.2%.
For `COc1cc(C)c(S(=O)(=O)N2Cc3ccccc3C[C@H]2COCC(=O)N2CCN(C3CCN(C)CC3)CC2)c(C)c1` [Example 127, (S)-2-((2-(4-methoxy-2,6-dimethylphenylsulfonyl)-1,2,3,4-tetrahydroisoquinolin-3-yl)methoxy)-1-(4-(1-methylpiperidin-4-yl)piperazin-1-yl)ethanone], in that order: 93.7% and 102%.
In the case of `COc1cc(C)c(S(=O)(=O)N2CCCCC2COCC(=O)NCc2ccc(N(C)C)cc2)c(C)c1` (centres unmarked) [Example 577, N-(4-(dimethylamino)benzyl)-2-((1-(4-methoxy-2,6-dimethylphenylsulfonyl)piperidin-2-yl)methoxy)acetamide], the figures for the inhibition at 10 µM on B1R receptor of the rat and on human B1R receptor were 107% and 17.3%, respectively.
For `COc1cc(C)c(S(=O)(=O)N2CCCCC2COCC(=O)N2CCC(c3nc(-c4ccncc4)no3)CC2)c(C)c1` (centres unmarked) [Example 103, 2-((1-(4-methoxy-2,6-dimethylphenylsulfonyl)piperidin-2-yl)methoxy)-1-(4-(3-(pyridin-4-yl)-1,2,4-oxadiazol-5-yl)piperidin-1-yl)ethanone], in that order: 100% and 105%.
In the case of `O=C(COCC1CCCCN1S(=O)(=O)c1ccc(Cl)c(Cl)c1)N1CCN(CC2CCCCC2)CC1` (centres unmarked) [Example 68, 1-(4-cyclohexylmethyl-piperazin-1-yl)-2-[1-(3,4-dichloro-phenylsulfonyl)-piperidin-2-ylmethoxy]-ethanone], the inhibition at 10 µM turned out to be 0% on B1R receptor of the rat and 54.1% on human B1R receptor.
In the same order, the values of `O=C(COCC1CCCN1S(=O)(=O)c1c(Cl)cc(Cl)cc1Cl)N1CCC(N2CCCC2)CC1` (centres unmarked) [Example 296, 1-(4-(pyrrolidin-1-yl)piperidin-1-yl)-2-((1-(2,4,6-trichlorophenylsulfonyl)pyrrolidin-2-yl)methoxy)ethanone] are 99.3% and 106%.
For `CN1CCC(N2CCN(C(=O)COCC3CCCCN3S(=O)(=O)c3cc4ccccc4s3)CC2)CC1` (centres unmarked) [Example 171, 2-((1-(benzo[b]thiophen-2-ylsulfonyl)piperidin-2-yl)methoxy)-1-(4-(1-methylpiperidin-4-yl)piperazin-1-yl)ethanone], the inhibition at 10 µM at B1R receptor of the rat is 82.8%; on human B1R receptor, 102%.
With `CN(C)CCCN1CCN(C(=O)COCC2CCCN2S(=O)(=O)c2c(Cl)cccc2Cl)CC1` (centres unmarked) [Example 566, 2-((1-(2,6-dichlorophenylsulfonyl)pyrrolidin-2-yl)methoxy)-1-(4-(3-(dimethylamino)propyl)piperazin-1-yl)ethanone], the inhibition at 10 µM on B1R receptor of the rat and on human B1R receptor was 103% in each case.
Turning to `COc1cc(C)c(S(=O)(=O)N2CCCC2COCC(=O)N2CCN(c3ncc(C(F)(F)F)cc3Cl)CC2)c(C)c1` (centres unmarked) [Example 469, 1-(4-(3-chloro-5-(trifluoromethyl)pyridin-2-yl)piperazin-1-yl)-2-((1-(4-methoxy-2,6-dimethylphenylsulfonyl)pyrrolidin-2-yl)methoxy)ethanone], the values for the inhibition at 10 µM on B1R receptor of the rat and on human B1R receptor were 102% and 92.3%, respectively.
As to `CN1CCC(N2CCN(C(=O)COC[C@@H]3Cc4ccccc4CN3S(=O)(=O)c3ccc(Cl)cc3Cl)CC2)CC1` [Example 133, (S)-2-((2-(2,4-dichlorophenylsulfonyl)-1,2,3,4-tetrahydroisoquinolin-3-yl)methoxy)-1-(4-(1-methylpiperidin-4-yl)piperazin-1-yl)ethanone], the inhibition at 10 µM at B1R receptor of the rat was 98.1%; at human B1R receptor, 103%.
In the case of `CN1CCC(N2CCN(C(=O)COCC3CCCCN3S(=O)(=O)c3c(Cl)cc(Cl)cc3Cl)CC2)CC1` (centres unmarked) [Example 118, 1-(4-(1-methylpiperidin-4-yl)piperazin-1-yl)-2-((1-(2,4,6-trichlorophenylsulfonyl)piperidin-2-yl)methoxy)ethanone], the figures for the inhibition at 10 µM on B1R receptor of the rat and on human B1R receptor were 102% and 104%, respectively.
Take `O=C(COCC1CCCCN1S(=O)(=O)c1c(Cl)cccc1Cl)N1CCN(c2ccc(C(F)(F)F)cc2)CC1` (centres unmarked) [Example 550, 2-((1-(2,6-dichlorophenylsulfonyl)piperidin-2-yl)methoxy)-1-(4-(4-(trifluoromethyl)phenyl)piperazin-1-yl)ethanone]: the inhibition at 10 µM was 101% at B1R receptor of the rat and 57.8% on human B1R receptor.
For the molecule `CCN1CCN(C(=O)COCC2CCCN2S(=O)(=O)c2c(Cl)cc(Cl)cc2Cl)CC1` (centres unmarked) [Example 295, 1-(4-ethylpiperazin-1-yl)-2-((1-(2,4,6-trichlorophenylsulfonyl)pyrrolidin-2-yl)methoxy)ethanone], the inhibition at 10 µM on B1R receptor of the rat amounted to 103%; on human B1R receptor, 96.7%.

The values above are taken from US8435978B2, “Substituted sulfonamide compounds” (Gruenenthal GmbH, priority 2006, dated 2013).
